The test has as its system human brain organoids. Format: cell-based.

Results on 2 substances are retold here after patent US20240076630A1, “METHODS FOR GENERATING NEURAL TISSUE AND USES THEREOF” (priority 2015, published 2024).

On to Tetrodotoxin citrate [TTX], for which the spike rate entry was “suppressed”.

Consider “2,3-Dioxo-6-nitro-1,2,3,4-tetrahydrobenzo[f]quinoxaline-7-sulfonamide disodium salt [NBQX]”, for which, for the setting “NBQX 20 μM, n=9 units, p<0.05, two-tailed Wilcoxon signed rank test, FIG. 4D bottom panel legend”, the mean spiking rate entry is reported as “attenuated”. Further, the “NBQX-treated median firing rate” value (bath application of 20 μM NBQX, 95% CI 0.0023 to 0.2048, n=12 units from 4 organoids) turned out to be 0.0733 Hz. In addition, the “reduction of the median mean firing rate” value (bath application of 20 μM NBQX, vs baseline median firing rate 0.3800 Hz, p=0.0005, n=12 units from 4 organoids) worked out at 81%.
